Reference: US20210196738A1, “PHARMACEUTICAL COMPOSITION COMPRISING A COLLOIDAL DISPERSION AND A THERAPEUTIC AGENT AND METHODS AND USES THEREOF” (priority 2017, published 2021)
Where two headings read alike, the source gives them in different places.

System: E. coli K-12 MG1655 (DA4201)
Test: AgSol-antibiotic synergy screening assay / MIC (Ag/Antibiotic screen)
Assay type: cell-based, Escherichia coli
Conditions: for MIC: Escherichia coli, MG1655, antibiotic alone; for Antibiotic MIC, NB + AgSol1000: antibiotic in combination with AgSol1000 at ¼ × MIC silver; for Fold change (antibiotic MIC, NB vs NB + AgSol1000): dash = MIC unchanged
Procedure: The MIC (Minimal Inhibitory Concentration) of a bacterium to a certain antimicrobial agent gives a quantitative estimate of the susceptibility. MIC is defined as the lowest concentration of antimicrobial agent required to inhibit growth of the organism. The principle is simple: Agar plates, tubes or microtitre trays with two-fold dilutions of antibiotics are inoculated with a standardized inoculum of the bacteria and incubated under standardized conditions following NCCLS guidelines. The next day, the MIC is recorded as the lowest concentration of antimicrobial agent with no visible growth. The MIC informs you about the degree of resistance and might give you important information about the resistance mechanism and the resistance genes involved. MIC-determination performed as agar dilution is regarded as the gold standard for susceptibility testing (Source: Global Salm-Surv—A global Salmonella surveillance and laboratory support project of the World Health Organization (4th Ed. April 2002, modified November 2010))
The Minimum Inhibitory Concentration (MIC) of nanosilver (silver) was determined by two-fold dilution series in NaCl free Nutrient Broth (Sigma-Aldrich) in 15 ml screw cap tubes. The tubes were incubated in the dark over night at 37° C. without shaking. The MIC was determined as the lowest concentration of nanosilver (silver) at which no visible growth was observed.
Antibiotic stock solutions were serially diluted in 2-fold steps in pre-warmed (37° C.) nutrient broth (NB) to prepare an antibiotic concentration gradient above and below the minimal inhibitory concentration (MIC) of antibiotic (Table 4). 50 μl of prepared dilutions were aliquoted into a 96-well round bottom plate (Nunc, Thermo Fisher) for the screening assay.
Silver formulation (AgSol1000 (particles with 19 Ag per silica particle), AgSol300 (particles with 6 Ag per silica particle, AgNO3), aluminum coated silica beads (159/500 (silica particles with aluminium silicate coating)) and uncoated silica beads (15/500) were diluted in pre-warmed (37° C.) NB. Bindzil®15/500 is an unmodified silica sol, whereas Bindzil®159/500 is a aluminosilicate modified silica sol. Bindzil® is sold by Akzo Nobel AB.
40 μl of the prepared dilutions were added to the 96-well plate containing antibiotic gradient to reach the final silver concentration of ¼×MICAgSol (silver) (specific for the microorganism used) (Table 5).
Overnight (16-20 h) cultures of 3 biological replicates of the following microorganisms E. coli K-12 MG1655 (DA4201), E. coli K-12 MG1655 rpsL K42N (DA49828), Pseudomonas aeruginosa PAO1 (DA6215) or Staphylococcus aureus USA300 JE2 (DA28823) were grown in NB till saturation (37° C. incubator with 190 rpm shaking). Cultures were diluted in NB to 10^7 CFU/ml and 10 μl of the dilution were added to the 96-well plate containing antibiotic gradient and silver formulations or the bead controls to reach the final concentration of 10^5 CFU/well in 100 μl total volume per well. 3 technical replicates (3 wells) of specific antibiotic concentration in combination with silver and microorganism were used. A control plate containing bacterial cells mixed with only antibiotic gradient was always included too.
The prepared plate was incubated in 37° C. incubator without shaking in the dark for 16-20 h and the optical density (OD620) of each well was measured in plate reader Multiscan FC (Thermo Fisher).

[1] = E. coli (DA4201), values used for antibiotic gradient, read-out: MIC
[2] = nutrient broth, read-out: Antibiotic MIC, NB

SMILES: CC1(C)S[C@@H]2[C@H](NC(=O)[C@H](N)c3ccccc3)C(=O)N2[C@H]1C(=O)O [Ampicillin]
- MIC [1]: 4 mg/L
- MIC [2]: 4 mg/L
- Antibiotic MIC, NB + AgSol1000 (nutrient broth): 2 mg/L
- Fold change (antibiotic MIC, NB vs NB + AgSol1000): 2x

SMILES: CO/N=C(\C(=O)N[C@@H]1C(=O)N2C(C(=O)O)=C(COC(C)=O)CS[C@H]12)c1csc(N)n1 [Cefotaxime]
- MIC [1]: 0.094 mg/L
- MIC [2]: 0.094 mg/L
- Antibiotic MIC, NB + AgSol1000 (nutrient broth): 0.047 mg/L
- Fold change (antibiotic MIC, NB vs NB + AgSol1000): 2x

SMILES: O=C(N[C@H](CO)[C@H](O)c1ccc([N+](=O)[O-])cc1)C(Cl)Cl [Chloramphenicol]
- MIC [1]: 3 mg/L
- MIC [2]: 3 mg/L
- Antibiotic MIC, NB + AgSol1000 (nutrient broth): 1.5 mg/L
- Fold change (antibiotic MIC, NB vs NB + AgSol1000): 2x

SMILES: O=C(O)c1cn(C2CC2)c2cc(N3CCNCC3)c(F)cc2c1=O [Ciprofloxacin]
- MIC [1]: 0.012 mg/L
- MIC [2]: 0.012 mg/L
- Antibiotic MIC, NB + AgSol1000 (nutrient broth): 0.012 mg/L

SMILES: CC[C@H]1OC(=O)[C@H](C)[C@@H](O[C@H]2C[C@@](C)(OC)[C@@H](O)[C@H](C)O2)[C@H](C)[C@@H](O[C@@H]2O[C@H](C)C[C@H](N(C)C)[C@H]2O)[C@](C)(O)C[C@@H](C)C(=O)[C@H](C)[C@@H](O)[C@]1(C)O [Erythromycin]
- MIC [1]: 48 mg/L
- MIC [2]: 48 mg/L
- Antibiotic MIC, NB + AgSol1000 (nutrient broth): 48 mg/L

SMILES: NC[C@H]1O[C@H](O[C@H]2[C@H](O)[C@@H](O[C@H]3O[C@H](CO)[C@@H](O)[C@H](N)[C@H]3O)[C@H](N)C[C@@H]2N)[C@H](O)[C@@H](O)[C@@H]1O [Kanamycin]
- MIC [1]: 0.5 mg/L
- MIC [2]: 0.5 mg/L
- Antibiotic MIC, NB + AgSol1000 (nutrient broth): 0.12 mg/L
- Fold change (antibiotic MIC, NB vs NB + AgSol1000): 4x

SMILES: CO[C@H]1/C=C/O[C@@]2(C)Oc3c(C)c(O)c4c(O)c(c(/C=N/N5CCN(C)CC5)c(O)c4c3C2=O)NC(=O)/C(C)=C\C=C\[C@H](C)[C@H](O)[C@@H](C)[C@@H](O)[C@@H](C)[C@H](OC(C)=O)[C@@H]1C [Rifampicin]
- MIC [1]: 3 mg/L
- MIC [2]: 3 mg/L
- Antibiotic MIC, NB + AgSol1000 (nutrient broth): 3 mg/L

SMILES: CN[C@@H]1[C@H](O)[C@H](NC)[C@H]2O[C@@]3(O)C(=O)C[C@@H](C)O[C@H]3O[C@@H]2[C@H]1O [Spectinomycin]
- MIC [1]: 12 mg/L
- MIC [2]: 12 mg/L
- Antibiotic MIC, NB + AgSol1000 (nutrient broth): 6 mg/L
- Fold change (antibiotic MIC, NB vs NB + AgSol1000): 2x

SMILES: CN(C)[C@@H]1C(O)=C(C(N)=O)C(=O)[C@@]2(O)C(O)=C3C(=O)c4c(O)cccc4[C@@](C)(O)[C@H]3C[C@@H]12 [Tetracycline]
- MIC [1]: 1 mg/L
- MIC [2]: 0.5 mg/L
- Antibiotic MIC, NB + AgSol1000 (nutrient broth): 0.5 mg/L

SMILES: NC[C@H]1O[C@H](O[C@H]2[C@H](O)[C@@H](O[C@H]3O[C@H](CO)[C@@H](O)[C@H](N)[C@H]3O)[C@H](N)C[C@@H]2N)[C@H](N)C[C@@H]1O [Tobramycin]
- MIC [1]: 0.75 mg/L
- MIC [2]: 0.75 mg/L
- fold increase in effect with AgSol vs antibiotic alone (Table 6, E. coli): 16 fold
- Antibiotic MIC, NB + AgSol1000 (nutrient broth): 0.047 mg/L
- Fold change (antibiotic MIC, NB vs NB + AgSol1000): 16x
